Data reported in ChEMBL document CHEMBL4828726, “Modification of 5-methylphenanthridium from benzothiazoles to indoles as potent FtsZ inhibitors: Broadening the antibacterial spectrum toward vancomycin-resistant enterococci” (Eur J Med Chem, 2021).
Active and inactive are the calls of the source. The calls are words filed in the database; no cut-off is given here.

Tests used:
Staphylococcus aureus [1] = assay: Antibacterial activity against Staphylococcus aureus ATCC 25923 assessed as fold change in MIC value measured after 14 passages by Multi passage resistance assay; assay type: functional, organism-based
Bacillus subtilis [2] = assay: Antibacterial activity against penicillin-susceptible Bacillus subtilis ATCC 9372 assessed as inhibition of bacterial growth measured after 20 hrs by two-fold microdilution assay; assay type: functional
Bacillus pumilus [3] = assay: Antibacterial activity against penicillin-susceptible Bacillus pumilus CMCC63202 assessed as inhibition of bacterial growth measured after 20 hrs by two-fold microdilution assay; assay type: functional
Staphylococcus aureus [4] = assay: Antibacterial activity against erythromycin-susceptible Staphylococcus aureus ATCC 25923 assessed as inhibition of bacterial growth measured after 20 hrs by two-fold microdilution assay; assay type: functional
Streptococcus pyogenes [5] = assay: Antibacterial activity against erythromycin-susceptible Streptococcus pyogenes assessed as inhibition of bacterial growth measured after 20 hrs by two-fold microdilution assay; assay type: functional
Escherichia coli = assay: Antibacterial activity against penicillin-susceptible Escherichia coli ATCC 25922 assessed as inhibition of bacterial growth measured after 20 hrs by two-fold microdilution assay; assay type: functional
Pseudomonas aeruginosa [6] = assay: Antibacterial activity against penicillin-susceptible Pseudomonas aeruginosa ATCC 27853 assessed as inhibition of bacterial growth measured after 20 hrs by two-fold microdilution assay; assay type: functional
Staphylococcus aureus [7] = assay: Antibacterial activity against methicillin-resistant Staphylococcus aureus ATCC43300 assessed as inhibition of bacterial growth measured after 20 hrs by two-fold microdilution assay; assay type: functional
Staphylococcus aureus [8] = assay: Antibacterial activity against penicillin-resistant Staphylococcus aureus ATCC 31007 assessed as inhibition of bacterial growth measured after 20 hrs by two-fold microdilution assay; assay type: functional
Staphylococcus aureus [9] = assay: Antibacterial activity against clinical isolate Staphylococcus aureus C1 assessed as inhibition of bacterial growth measured after 20 hrs by two-fold microdilution assay; assay type: functional
Streptococcus pyogenes [10] = assay: Antibacterial activity against erythromycin-resistant Streptococcus pyogenes assessed as inhibition of bacterial growth measured after 20 hrs by two-fold microdilution assay; assay type: functional
[11] = tested on: Staphylococcus epidermidis; assay: Antibacterial activity against penicillin-resistant Staphylococcus epidermidis assessed as inhibition of bacterial growth measured after 20 hrs by two-fold microdilution assay; assay type: functional
Enterococcus faecalis [12] = assay: Antibacterial activity against Vancomycin-susceptible Enterococcus faecalis ATCC 29212 assessed as inhibition of bacterial growth measured after 20 hrs by two-fold microdilution assay; assay type: functional
Enterococcus faecium [13] = assay: Antibacterial activity against Vancomycin-susceptible Enterococcus faecium ATCC 19434 assessed as inhibition of bacterial growth measured after 20 hrs by two-fold microdilution assay; assay type: functional
Enterococcus faecium [14] = assay: Antibacterial activity against Vancomycin-resistant Enterococcus faecium ATCC 51559 assessed as inhibition of bacterial growth measured after 20 hrs by two-fold microdilution assay; assay type: functional
Enterococcus faecalis [15] = assay: Antibacterial activity against Vancomycin-resistant Enterococcus faecalis ATCC 51299 assessed as inhibition of bacterial growth measured after 20 hrs by two-fold microdilution assay; assay type: functional
Bacillus subtilis [16] = assay: Bactericidal activity against penicillin-susceptible Bacillus subtilis ATCC 9372 assessed as inhibition of bacterial growth measured after 20 hrs by two-fold microdilution assay; assay type: functional
Bacillus pumilus [17] = assay: Bactericidal activity against penicillin-susceptible Bacillus pumilus CMCC63202 assessed as inhibition of bacterial growth measured after 20 hrs by two-fold microdilution assay; assay type: functional
Staphylococcus aureus [18] = assay: Bactericidal activity against erythromycin-susceptible Staphylococcus aureus ATCC 25923 assessed as inhibition of bacterial growth measured after 20 hrs by two-fold microdilution assay; assay type: functional
Staphylococcus aureus [19] = assay: Bactericidal activity against methicillin-resistant Staphylococcus aureus ATCC43300 assessed as inhibition of bacterial growth measured after 20 hrs by two-fold microdilution assay; assay type: functional
Staphylococcus aureus [20] = assay: Bactericidal activity against penicillin-resistant Staphylococcus aureus ATCC 31007 assessed as inhibition of bacterial growth measured after 20 hrs by two-fold microdilution assay; assay type: functional
Bacillus subtilis [21] = assay: Ratio of MBC to MIC against penicillin-susceptible Bacillus subtilis ATCC 9372; assay type: functional
Staphylococcus aureus [22] = assay: Ratio of MBC to MIC against erythromycin-susceptible Staphylococcus aureus ATCC 25923; assay type: functional
Staphylococcus aureus [23] = assay: Ratio of MBC to MIC against methicilline-resistant Staphylococcus aureus ATCC43300; assay type: functional
Staphylococcus aureus [24] = assay: Antibacterial activity against Staphylococcus aureus ATCC 25923 assessed as reduction of colony forming units at 32 ug/ml measured up to 24 hrs by Time kill assay; assay type: functional; parameters: scale not given: the % may be the effect or the level left; details: dose 32 µg/ml; time hrs <=24
Pseudomonas aeruginosa [25] = assay: Anti-biofilm activity against Pseudomonas aeruginosa ATCC 27853 assessed as inhibition of biofilm formation at 4 to 64 ug/ml measured after 20 hrs by crystal violet staining based biofilm formation inhibition assay; assay type: functional, organism-based; details: dose 4-64 µg/ml
[26] = Hemolytic activity against mouse RBC at 1 to 16 ug/ml measured after 1 hr by hemolysis assay relative to Triton X-100; assay type: ADME, cell-based, Erythrocyte; details: mouse red blood cells (erythrocytes), at 1 to 16 µg/mL, dose 1-16 µg/ml, read-out: Activity
Staphylococcus aureus [27] = assay: Antibacterial activity against Staphylococcus aureus ATCC 25923 assessed as decrease of bacterial growth measured up to 24 hrs by Time kill assay; assay type: functional, organism-based; details: dose 4-32 µg/ml, time hrs <=24
Staphylococcus aureus [28] = assay: Antibacterial activity against Staphylococcus aureus ATCC 25923 assessed as fold increase in MIC value measured after 1 passage by Multi passage resistance assay; assay type: functional
Staphylococcus aureus [29] = assay: Antibacterial activity against Staphylococcus aureus ATCC 25923 assessed as fold increase in MIC value measured after 10 passages by Multi passage resistance assay; assay type: functional, organism-based
Staphylococcus aureus [30] = assay: Antibacterial activity against Staphylococcus aureus ATCC 25923 assessed as fold increase in MIC value measured after 15 passages by Multi passage resistance assay; assay type: functional

CCCCn1ccc2ccc(-c3ccc4c(c3)c3c(C)cccc3c[n+]4C)cc21.[Cl-]
Activity (Staphylococcus aureus [1]): Active
MIC (Bacillus subtilis [2]): 4 µg/mL
MIC (Bacillus pumilus [3]): 8 µg/mL
MIC (Staphylococcus aureus [4]): 1 µg/mL
MIC (Streptococcus pyogenes [5]): 16 µg/mL
MIC (Escherichia coli): > 64 µg/mL
MIC (Pseudomonas aeruginosa [6]): > 64 µg/mL
MIC (Staphylococcus aureus [7]): 8 µg/mL
MIC (Staphylococcus aureus [8]): 8 µg/mL
MIC (Staphylococcus aureus [9]): 4 µg/mL
MIC (Streptococcus pyogenes [10]): 16 µg/mL
MIC [11]: 16 µg/mL
MIC (Enterococcus faecalis [12]): 8 µg/mL
MIC (Enterococcus faecium [13]): 8 µg/mL
MIC (Enterococcus faecium [14]): 8 µg/mL
MIC (Enterococcus faecalis [15]): 16 µg/mL
MBC (Bacillus subtilis [16]): 8 µg/mL
MBC (Bacillus pumilus [17]): > 64 µg/mL
MBC (Staphylococcus aureus [18]): 16 µg/mL
MBC (Staphylococcus aureus [19]): 64 µg/mL
MBC (Staphylococcus aureus [20]): > 64 µg/mL
Ratio (Bacillus subtilis [21]): 2
Ratio (Staphylococcus aureus [22]): 16
Ratio (Staphylococcus aureus [23]): 8
Activity (Staphylococcus aureus [24]): >99.9%
Activity (Pseudomonas aeruginosa [25]): inactive
hemolysis at 1 h [26]: < 8%
Activity (Staphylococcus aureus [27]): Dose-Dependent Effect
fold change (FC) (Staphylococcus aureus [28]): 4
Activity (Staphylococcus aureus [29]): Active

CO[C@H]1/C=C/O[C@@]2(C)Oc3c(C)c(O)c4c(O)c(c(/C=N/N5CCN(C)CC5)c(O)c4c3C2=O)NC(=O)/C(C)=C\C=C\[C@H](C)[C@H](O)[C@@H](C)[C@@H](O)[C@@H](C)[C@H](OC(C)=O)[C@@H]1C [RIFAMPIN]
fold change (FC) (Staphylococcus aureus [30]): >16000
fold change (FC) (Staphylococcus aureus [28]): 8
